From US20050255509A1, “In vivo measurement of the relative fluxes through ribonucleotide reductase vs. deoxyribonucleoside pathways using isotopes” (KineMed, Inc., priority 2004, published 2005) come the findings set out here.

Test [1] addresses T1, ribonucleotide reductase (RR) (Mus musculus, UniProt P07742+P11157).
T1 construct: from tissue; host or cells: EMT7 mouse mammary carcinoma tumour and bone marrow of female balb/C mice
T1 sequence (P07742 1-792): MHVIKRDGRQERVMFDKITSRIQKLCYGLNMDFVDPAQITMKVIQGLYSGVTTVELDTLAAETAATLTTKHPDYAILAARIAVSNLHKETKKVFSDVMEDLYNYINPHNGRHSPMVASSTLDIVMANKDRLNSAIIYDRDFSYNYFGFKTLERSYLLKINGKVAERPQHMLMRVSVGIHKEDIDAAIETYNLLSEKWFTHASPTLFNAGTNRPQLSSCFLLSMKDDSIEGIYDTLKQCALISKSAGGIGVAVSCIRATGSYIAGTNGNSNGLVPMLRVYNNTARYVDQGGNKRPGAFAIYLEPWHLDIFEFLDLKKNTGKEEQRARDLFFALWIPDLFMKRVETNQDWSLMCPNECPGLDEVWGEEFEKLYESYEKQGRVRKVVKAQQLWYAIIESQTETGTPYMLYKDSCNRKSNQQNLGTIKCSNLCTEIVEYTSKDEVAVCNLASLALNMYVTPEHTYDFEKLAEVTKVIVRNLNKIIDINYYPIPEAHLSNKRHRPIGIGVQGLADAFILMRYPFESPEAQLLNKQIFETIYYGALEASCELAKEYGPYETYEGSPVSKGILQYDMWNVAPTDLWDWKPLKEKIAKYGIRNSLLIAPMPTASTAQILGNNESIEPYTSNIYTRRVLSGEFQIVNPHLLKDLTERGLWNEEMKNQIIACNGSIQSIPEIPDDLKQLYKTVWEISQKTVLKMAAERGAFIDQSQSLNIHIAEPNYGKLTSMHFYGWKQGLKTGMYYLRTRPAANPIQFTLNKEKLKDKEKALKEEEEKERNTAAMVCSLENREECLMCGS
T1 sequence (P11157 1-390): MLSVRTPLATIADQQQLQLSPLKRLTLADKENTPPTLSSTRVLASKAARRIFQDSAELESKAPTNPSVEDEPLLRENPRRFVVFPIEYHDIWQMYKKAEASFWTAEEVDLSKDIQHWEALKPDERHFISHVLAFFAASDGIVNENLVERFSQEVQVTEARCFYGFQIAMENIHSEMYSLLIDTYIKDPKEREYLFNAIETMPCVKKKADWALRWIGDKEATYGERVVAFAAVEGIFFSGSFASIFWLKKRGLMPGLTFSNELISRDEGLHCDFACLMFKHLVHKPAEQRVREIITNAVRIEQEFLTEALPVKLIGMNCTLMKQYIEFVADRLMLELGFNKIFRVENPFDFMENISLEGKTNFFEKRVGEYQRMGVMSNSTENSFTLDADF
Briefly: RR inhibition in tumor and bone marrow of EMT7 tumor-bearing mice over 5 days of chemotherapy. Type of test: in vivo. As to conditions: balb/C mice with EMT7 tumors, 125 mg/kg Gem every other day or 500 mg/kg HU daily, relative to untreated (control) mice. Here is the method: Female balb/C mice were implanted subcutaneously with approximately 10^6 EMT7 mouse mammary carcinoma cells in matrigel and allowed to reach ca.1500 mm^3.
(§1) Mice were labeled with 2H2O with an i.p. bolus and treatment with either 125 mg/kg gemcitabine (Gem) or 500 mg/kg HU began. Gem was administered every other day, HU daily. At then end of 5 days tumors were removed, measured, homogenized and DNA was isolated as described, supra. Bone marrow was isolated using standard techniques. Bone marrow DNA was isolated as described, supra. GC/MS analysis was described as carried out, and calculations of RR activity and cell proliferation were carried out for both tumor and bone marrow tissues. Tumor volume was also measured by use of a caliper as is standard in the art.

Test [2] deals with EMT7 mouse mammary carcinoma cells. Briefly: In vivo tumor cell proliferation by 2H2O incorporation over 5 days of chemotherapy. As to conditions: balb/C mice with EMT7 tumors, 125 mg/kg Gem every other day or 500 mg/kg HU daily. The protocol:
as §1, with “Female balb/C mice were implanted subcutaneously with approximately 10^6 EMT7 mouse mammary carcinoma cells in matrigel and allowed to reach ca.1500 mm^3. Mice” for “Mice”

The test system is the same in test [3]. Briefly: Tumor volume by caliper over 5 days of chemotherapy. Type of test: in vivo. The conditions noted are these: balb/C mice with EMT7 tumors, 125 mg/kg Gem every other day or 500 mg/kg HU daily. Here is the method:
as §1, with “Female balb/C mice were implanted subcutaneously with approximately 10^6 EMT7 mouse mammary carcinoma cells in matrigel and allowed to reach ca.1500 mm^3. Mice” for “Mice”

The target in test [4] is T2, ribonucleotide reductase (RR) (Homo sapiens, UniProt P23921+P31350).
T2 sequence (P23921 1-792): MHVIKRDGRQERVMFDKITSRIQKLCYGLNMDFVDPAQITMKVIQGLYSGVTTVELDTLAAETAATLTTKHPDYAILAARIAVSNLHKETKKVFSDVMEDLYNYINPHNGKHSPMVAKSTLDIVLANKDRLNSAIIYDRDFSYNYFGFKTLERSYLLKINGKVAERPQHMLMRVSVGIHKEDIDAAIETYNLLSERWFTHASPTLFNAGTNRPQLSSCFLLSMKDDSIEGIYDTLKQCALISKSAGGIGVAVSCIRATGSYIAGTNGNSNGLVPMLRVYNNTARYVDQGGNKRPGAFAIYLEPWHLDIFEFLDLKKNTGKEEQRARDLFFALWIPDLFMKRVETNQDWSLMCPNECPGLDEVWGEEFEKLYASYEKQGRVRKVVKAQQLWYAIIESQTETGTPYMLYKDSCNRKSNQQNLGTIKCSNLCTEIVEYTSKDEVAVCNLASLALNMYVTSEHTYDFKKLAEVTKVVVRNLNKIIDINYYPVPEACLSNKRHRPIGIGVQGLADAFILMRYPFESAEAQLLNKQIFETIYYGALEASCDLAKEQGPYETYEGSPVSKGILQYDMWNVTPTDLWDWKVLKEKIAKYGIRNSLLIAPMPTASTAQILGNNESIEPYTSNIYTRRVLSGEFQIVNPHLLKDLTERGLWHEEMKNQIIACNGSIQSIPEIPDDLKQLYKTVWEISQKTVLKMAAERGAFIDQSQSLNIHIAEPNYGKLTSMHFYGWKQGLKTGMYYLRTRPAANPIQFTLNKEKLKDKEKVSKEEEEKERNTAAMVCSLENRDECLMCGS
T2 sequence (P31350 1-389): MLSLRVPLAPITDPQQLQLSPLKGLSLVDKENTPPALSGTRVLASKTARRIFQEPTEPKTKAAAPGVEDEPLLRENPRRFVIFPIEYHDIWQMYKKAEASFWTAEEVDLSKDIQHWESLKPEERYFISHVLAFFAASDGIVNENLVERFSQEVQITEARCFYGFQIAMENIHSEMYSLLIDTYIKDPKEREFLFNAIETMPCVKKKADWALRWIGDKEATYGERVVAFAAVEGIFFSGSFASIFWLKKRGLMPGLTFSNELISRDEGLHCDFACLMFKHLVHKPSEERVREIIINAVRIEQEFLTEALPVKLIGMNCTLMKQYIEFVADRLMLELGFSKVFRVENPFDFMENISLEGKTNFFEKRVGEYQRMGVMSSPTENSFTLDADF
In words: RR activity measured by 2H2O in SW1573 cells. Also on record: endogenous in cells; host or cells: SW1573 non-small cell lung carcinoma cells. Type of test: cell-based. As to conditions: 24 hours; for RR activity, % of control: level reached with increasing doses. The protocol: Ribonucleotide reductase catalyzes the conversion of ribonucleotides to deoxyribonucleotides (FIG. 1A). A unique feature of RR is the response of nucleoside metabolism to its inhibition. When RR is inhibited, the activity of thymidine kinase is increased. […] Traditionally, this effect is assayed in vitro by measuring the increase in the concentration of free TTP pool relative to the other deoxynucleotides. […] The salvage of deoxyadenosine is very low in normal cells allowing the measurement of DNA synthesis from the incorporation of de novo deoxyadenosine (see supra); furthermore since dAk activity is not affected by RR inhibition it can be used as the denominator for calculating fractional de novo thymidine synthesis. The relative inhibition of RR can be inferred from the reduction in de novo thymidine incorporation relative to dA into DNA. In a preferred embodiment of the invention, once the isotopic enrichment of dA and dT have been determined (as described, supra) for both a test and control subject or sample, the ratio of dT enrichment to dA enrichment is compared.
(§2) Non-small cell lung carcinoma cells (SW1573) were grown under standard conditions to approximately 50% confluence. Media was removed and replaced with media containing 4% ^2H2O, 1 µM dN's and hydroxyurea or gemcitabine at various concentrations. Cells were grown for and additional 24 hours after which they were harvested and frozen. Cell proliferation and RR inhibition was performed as described, supra.

The next test deals with MCF7 cells. Briefly: Cell proliferation in hydroxyurea-treated MCF7 cells (2H2O labeling and coulter counter). Type of test: cell-based. As to conditions: 24 hours, hydroxyurea at various concentrations.
A further test relates to SW1573 cells. In words: Cell proliferation measured by 2H2O in SW1573 cells. Type of test: cell-based. As to conditions: 24 hours. Here is the method:
as §2

Test [5] deals with T2, ribonucleotide reductase (RR). Briefly: RR activity measured by 2H2O in hydroxyurea-treated MCF7 cells. The conditions noted are these: 24 hours. Type of test: cell-based. The arrangement: endogenous in cells. Here is the method:
Ribonucleotide reductase catalyzes the conversion of ribonucleotides to deoxyribonucleotides (FIG. 1A). A unique feature of RR is the response of nucleoside metabolism to its inhibition. When RR is inhibited, the activity of thymidine kinase is increased. […] Traditionally, this effect is assayed in vitro by measuring the increase in the concentration of free TTP pool relative to the other deoxynucleotides. […] In a preferred embodiment of the invention, once the isotopic enrichment of dA and dT have been determined (as described, supra) for both a test and control subject or sample, the ratio of dT enrichment to dA enrichment is compared.
Mammary carcinoma cells (MCF7) were grown under standard conditions to approximately 50% confluence. […] Cells continued to grow for 24 hours after which they were harvested, counted by coulter counter, and frozen.
Genomic DNA was isolated from frozen cells using a Qiagen Tissue Prep Kit according to the manufacturer's instructions. DNA digestion was performed after measuring the ratio of 260/280 to quantify the amount of isolated DNA. […]
HPLC Purification: dA and T were then isolated at room temperature by using a Waters HPLC system coupled with a UV detector. […] Normal nucleosides (dC, dG, dT, dA) were detected by UV absorption at 254 nm. […]

Regarding `Nc1ccn([C@@H]2O[C@H](CO)[C@@H](O)C2(F)F)c(=O)n1` [gemcitabine], in test [1], the “bone marrow cell RR activity” value is recorded as “inhibited” and the “tumor cell RR activity” value was “inhibited”. Further, the tumor cell proliferation result in test [2] was “effect of HU and Gem on cell proliferation is observed”. Moreover, the tumor volume entry in test [3] is recorded as “no change”. The inhibition at 0.0016 µM in test [4] (1.6 nM) was determined as 70%. The RR activity entry in test [4] (48 nM) is “nearly abolishes”. Also, the “RR activity, % of control” value in test [4] was ~0 % of control.

Turning to `NC(=O)NO` [hydroxyurea], the “rate of cell proliferation” value in the test with MCF7 cells is on record as “reduces the rate of cell proliferation”. In the test on SW1573 cells, the “concentration at which inhibition of cell proliferation was evident” value was 20 µM. In test [1], the “bone marrow cell RR activity” value is reported as “inhibited” and the “tumor cell RR activity” value is listed as “inhibited”. In addition, the tumor cell proliferation result in test [2] is “effect of HU and Gem on cell proliferation is observed”. The tumor volume entry in test [3] is on record as “no change”. The RR activity entry in test [5] (doses 50 μM HU and above) is given as “dramatically inhibited”. In test [5] (hydroxyurea at various concentrations), the “activity of RR” value is “reduces”. For the same molecule, in test [4], the “concentration at which apparent maximal RR inhibition occurred” value is on record as 6 µM; the inhibition at 6 µM worked out at 80%; the “RR activity, % of control” value is listed as −20 % of control.

For orientation: inhibition means the share of the control response that was lost under treatment. A high value points to strong suppression.
